According to the kinase profiling compilation of Christmann-Franck et al. (2016):

What was measured:
Assay in all cases: radiometric filter-binding kinase assay
[1] = target: MAPK3 (human) (UniProt P27361)
[2] = target: DYRK1A (human) (UniProt Q13627); conditions: compound 10.0 µM
[3] = tested on: ROCK2 (rat); conditions: accession and sequence are those of the human protein
[4] = target: MAPK12 (human) (UniProt P53778)
[5] = target: PLK1 (human) (UniProt P53350)
[6] = tested on: SGK1 (human), O00141 [S422D]
[7] = target: PIM3 (human) (UniProt Q86V86)
[8] = target: DAPK1 (human) (UniProt P53355)
[9] = target: NTRK1 (human) (UniProt P04629)
Chain of NTRK1 (human) (P04629 whole entry, looked up): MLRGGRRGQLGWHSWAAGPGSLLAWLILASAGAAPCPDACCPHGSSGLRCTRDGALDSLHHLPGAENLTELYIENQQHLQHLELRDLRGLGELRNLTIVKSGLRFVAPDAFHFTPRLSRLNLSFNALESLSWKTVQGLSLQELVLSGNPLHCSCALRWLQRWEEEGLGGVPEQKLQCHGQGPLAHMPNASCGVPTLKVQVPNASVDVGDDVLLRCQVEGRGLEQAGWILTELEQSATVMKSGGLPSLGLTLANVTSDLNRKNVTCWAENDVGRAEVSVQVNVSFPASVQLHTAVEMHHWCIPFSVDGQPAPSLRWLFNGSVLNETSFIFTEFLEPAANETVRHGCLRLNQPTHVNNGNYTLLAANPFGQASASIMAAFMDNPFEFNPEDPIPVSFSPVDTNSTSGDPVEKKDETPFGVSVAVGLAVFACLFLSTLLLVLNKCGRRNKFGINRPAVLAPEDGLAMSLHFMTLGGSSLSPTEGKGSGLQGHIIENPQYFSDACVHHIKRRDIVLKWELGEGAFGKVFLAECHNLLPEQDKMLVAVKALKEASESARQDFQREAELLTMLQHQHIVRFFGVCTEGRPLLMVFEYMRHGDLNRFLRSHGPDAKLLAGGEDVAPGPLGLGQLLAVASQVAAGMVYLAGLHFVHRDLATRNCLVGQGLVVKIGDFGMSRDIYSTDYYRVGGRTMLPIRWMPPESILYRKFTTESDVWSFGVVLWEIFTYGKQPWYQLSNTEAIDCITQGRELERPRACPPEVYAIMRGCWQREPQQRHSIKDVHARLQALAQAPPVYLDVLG

[10] = target: PIM2 (human) (UniProt Q9P1W9)
Chain of PIM2 (human) (Q9P1W9 whole entry, looked up): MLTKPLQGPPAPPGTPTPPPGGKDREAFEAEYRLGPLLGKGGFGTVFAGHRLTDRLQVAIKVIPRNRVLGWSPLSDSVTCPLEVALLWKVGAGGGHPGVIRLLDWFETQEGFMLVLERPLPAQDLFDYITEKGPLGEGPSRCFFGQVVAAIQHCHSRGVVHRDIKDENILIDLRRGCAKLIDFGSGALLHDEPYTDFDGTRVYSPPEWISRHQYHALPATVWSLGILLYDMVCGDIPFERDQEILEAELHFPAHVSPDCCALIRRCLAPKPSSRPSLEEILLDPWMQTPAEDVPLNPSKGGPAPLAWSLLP

[11] = tested on: RPS6KB1 (human), P23443 [T412E]
Chain of RPS6KB1 (human), P23443 [T412E] (P23443 whole entry T412E, looked up): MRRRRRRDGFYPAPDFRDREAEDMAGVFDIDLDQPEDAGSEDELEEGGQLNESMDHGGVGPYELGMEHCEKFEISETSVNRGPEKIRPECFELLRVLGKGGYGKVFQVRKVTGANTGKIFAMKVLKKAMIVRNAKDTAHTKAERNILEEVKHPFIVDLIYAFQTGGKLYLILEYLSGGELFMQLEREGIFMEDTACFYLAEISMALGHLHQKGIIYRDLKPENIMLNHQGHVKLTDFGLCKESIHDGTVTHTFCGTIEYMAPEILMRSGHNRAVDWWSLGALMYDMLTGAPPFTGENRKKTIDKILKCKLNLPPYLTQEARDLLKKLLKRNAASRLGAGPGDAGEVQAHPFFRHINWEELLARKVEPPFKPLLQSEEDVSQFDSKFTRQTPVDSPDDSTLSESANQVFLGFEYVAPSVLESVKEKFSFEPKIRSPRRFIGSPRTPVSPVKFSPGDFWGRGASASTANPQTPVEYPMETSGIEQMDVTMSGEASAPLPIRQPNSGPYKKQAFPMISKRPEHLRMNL

[12] = target: PIM1 (human) (UniProt P11309)
[13] = target: PAK4 (human) (UniProt O96013)
[14] = target: MKNK2 (human) (UniProt Q9HBH9)
[15] = target: MAPKAPK3 (human) (UniProt Q16644)
[16] = target: RPS6KA1 KD1 KD2 (human) (UniProt Q15418)
Chain of RPS6KA1 KD1 KD2 (human) (Q15418 whole entry, looked up): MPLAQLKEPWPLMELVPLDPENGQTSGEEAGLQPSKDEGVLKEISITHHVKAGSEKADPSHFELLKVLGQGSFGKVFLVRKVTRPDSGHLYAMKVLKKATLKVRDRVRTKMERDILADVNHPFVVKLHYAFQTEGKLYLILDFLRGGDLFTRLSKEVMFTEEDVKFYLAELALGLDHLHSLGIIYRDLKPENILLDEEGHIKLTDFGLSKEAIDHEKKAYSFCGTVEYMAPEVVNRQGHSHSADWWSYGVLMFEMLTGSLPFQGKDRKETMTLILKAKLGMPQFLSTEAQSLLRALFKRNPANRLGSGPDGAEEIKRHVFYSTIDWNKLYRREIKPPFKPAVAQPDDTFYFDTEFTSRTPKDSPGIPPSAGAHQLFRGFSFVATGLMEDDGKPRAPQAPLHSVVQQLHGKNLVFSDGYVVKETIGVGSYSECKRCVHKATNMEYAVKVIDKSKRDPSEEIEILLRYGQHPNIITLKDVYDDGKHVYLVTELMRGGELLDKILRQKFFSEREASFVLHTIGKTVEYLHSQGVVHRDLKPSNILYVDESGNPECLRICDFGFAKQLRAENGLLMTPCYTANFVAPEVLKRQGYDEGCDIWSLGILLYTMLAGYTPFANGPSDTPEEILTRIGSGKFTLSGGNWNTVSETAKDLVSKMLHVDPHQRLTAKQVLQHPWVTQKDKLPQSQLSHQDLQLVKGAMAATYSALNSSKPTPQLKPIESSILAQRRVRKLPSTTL

[17] = target: MAPK8 (human) (UniProt P45983)
[18] = target: IRAK4 (human) (UniProt Q9NWZ3)
[19] = target: MAP3K11 (human) (UniProt Q16584)
[20] = target: TBK1 (human) (UniProt Q9UHD2); conditions: compound 10.0 µM
[21] = target: IKBKB (human) (UniProt O14920)
[22] = target: CLK2 (human) (UniProt P49760)
[23] = target: MAPK11 (human) (UniProt Q15759)
Chain of MAPK11 (human) (Q15759 whole entry, looked up): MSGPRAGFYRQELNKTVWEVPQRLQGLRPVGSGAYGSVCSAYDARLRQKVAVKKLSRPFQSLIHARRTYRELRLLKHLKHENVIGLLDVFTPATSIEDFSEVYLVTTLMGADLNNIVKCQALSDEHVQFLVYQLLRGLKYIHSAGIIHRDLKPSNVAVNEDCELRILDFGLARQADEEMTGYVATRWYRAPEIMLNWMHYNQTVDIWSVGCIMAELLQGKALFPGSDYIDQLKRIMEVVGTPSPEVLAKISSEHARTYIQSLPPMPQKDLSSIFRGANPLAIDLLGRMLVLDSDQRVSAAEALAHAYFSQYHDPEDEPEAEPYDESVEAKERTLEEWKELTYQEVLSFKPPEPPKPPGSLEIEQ

[24] = target: MAP3K7 TAB1 (human) (UniProt Q15750+O43318)
[25] = target: DYRK3 (human) (UniProt O43781); conditions: compound 1.0 µM
[26] = target: CSNK2A1 (human) (UniProt P68400)
[27] = target: MAPK14 (human) (UniProt Q16539)
[28] = tested on: AKT1 (human), P31749 [S473D]
[29] = target: MAPKAPK5 (human) (UniProt Q8IW41)
[30] = target: STK3 (human) (UniProt Q13188)
[31] = target: BRSK2 (human) (UniProt Q8IWQ3)
Chain of BRSK2 (human) (Q8IWQ3 whole entry, looked up): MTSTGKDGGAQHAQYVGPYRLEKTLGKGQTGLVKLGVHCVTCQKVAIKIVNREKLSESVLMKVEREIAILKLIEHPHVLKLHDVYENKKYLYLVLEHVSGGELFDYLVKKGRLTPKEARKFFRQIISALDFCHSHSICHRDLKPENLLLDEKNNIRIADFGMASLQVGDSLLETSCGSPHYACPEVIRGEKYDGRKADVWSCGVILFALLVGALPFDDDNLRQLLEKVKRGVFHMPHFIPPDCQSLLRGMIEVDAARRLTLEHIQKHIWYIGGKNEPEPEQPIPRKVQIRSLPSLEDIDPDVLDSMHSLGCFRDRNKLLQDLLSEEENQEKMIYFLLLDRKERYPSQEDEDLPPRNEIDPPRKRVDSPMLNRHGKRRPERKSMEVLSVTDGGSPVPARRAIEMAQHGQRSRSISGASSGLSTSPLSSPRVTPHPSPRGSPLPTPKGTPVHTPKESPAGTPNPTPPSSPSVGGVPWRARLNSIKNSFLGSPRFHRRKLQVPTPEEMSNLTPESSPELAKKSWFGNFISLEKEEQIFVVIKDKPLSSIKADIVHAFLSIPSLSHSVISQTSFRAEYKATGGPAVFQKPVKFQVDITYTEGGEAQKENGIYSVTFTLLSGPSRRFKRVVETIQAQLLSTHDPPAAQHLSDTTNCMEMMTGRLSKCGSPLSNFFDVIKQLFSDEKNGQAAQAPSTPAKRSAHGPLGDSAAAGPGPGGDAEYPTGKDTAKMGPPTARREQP

[32] = target: MAP2K6 (human) (UniProt P52564)
[33] = target: EPHB3 (human) (UniProt P54753)
Chain of EPHB3 (human) (P54753 whole entry, looked up): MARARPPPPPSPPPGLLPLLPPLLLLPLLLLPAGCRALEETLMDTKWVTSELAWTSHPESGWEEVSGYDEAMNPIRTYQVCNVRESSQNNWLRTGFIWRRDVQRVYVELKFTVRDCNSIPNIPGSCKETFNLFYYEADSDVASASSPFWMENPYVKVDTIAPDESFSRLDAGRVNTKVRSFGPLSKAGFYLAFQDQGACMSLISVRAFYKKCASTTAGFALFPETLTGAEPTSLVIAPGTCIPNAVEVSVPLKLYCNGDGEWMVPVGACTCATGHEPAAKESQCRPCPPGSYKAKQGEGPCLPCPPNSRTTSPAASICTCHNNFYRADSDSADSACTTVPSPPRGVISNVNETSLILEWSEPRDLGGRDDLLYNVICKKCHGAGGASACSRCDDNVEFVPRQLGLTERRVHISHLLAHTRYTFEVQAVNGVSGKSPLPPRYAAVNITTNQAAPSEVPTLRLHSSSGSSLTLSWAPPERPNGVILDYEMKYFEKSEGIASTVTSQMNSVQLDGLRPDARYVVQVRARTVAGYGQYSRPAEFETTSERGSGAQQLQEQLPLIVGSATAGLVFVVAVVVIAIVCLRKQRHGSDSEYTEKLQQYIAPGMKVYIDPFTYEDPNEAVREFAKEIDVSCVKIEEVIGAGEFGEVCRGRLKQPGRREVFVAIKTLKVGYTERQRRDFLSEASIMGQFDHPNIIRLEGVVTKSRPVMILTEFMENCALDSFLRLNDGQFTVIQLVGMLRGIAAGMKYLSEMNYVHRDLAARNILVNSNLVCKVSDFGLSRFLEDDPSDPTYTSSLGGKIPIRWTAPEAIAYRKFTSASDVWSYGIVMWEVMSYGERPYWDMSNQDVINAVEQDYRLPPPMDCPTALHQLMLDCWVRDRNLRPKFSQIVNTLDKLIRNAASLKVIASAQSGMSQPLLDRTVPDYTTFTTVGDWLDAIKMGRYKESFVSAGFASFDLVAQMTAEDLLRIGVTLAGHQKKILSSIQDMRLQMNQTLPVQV

[34] = target: IKBKE (human) (UniProt Q14164); conditions: compound 10.0 µM

Chain of MAPK12 (human) (P53778 whole entry, looked up): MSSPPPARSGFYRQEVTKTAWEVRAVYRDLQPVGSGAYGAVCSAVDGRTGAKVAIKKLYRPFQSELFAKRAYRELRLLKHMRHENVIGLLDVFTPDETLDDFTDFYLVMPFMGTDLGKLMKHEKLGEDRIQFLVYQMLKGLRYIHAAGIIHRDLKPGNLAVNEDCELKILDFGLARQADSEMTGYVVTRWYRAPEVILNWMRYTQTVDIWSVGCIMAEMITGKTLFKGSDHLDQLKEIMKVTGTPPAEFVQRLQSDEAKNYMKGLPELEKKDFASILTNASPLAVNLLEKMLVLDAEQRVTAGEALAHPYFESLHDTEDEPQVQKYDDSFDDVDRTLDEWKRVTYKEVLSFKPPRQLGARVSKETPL

NCC(=O)Nc1ccc(-n2nc(C(F)(F)F)cc2-c2ccc3c(ccc4ccccc43)c2)cc1
residual activity ([1]; compound 1.0 µM): 80% | residual activity ([1]; compound 10.0 µM): 63% | residual activity [2]: 82% | residual activity ([3]; compound 1.0 µM): 88% | residual activity ([3]; compound 10.0 µM): 87% | residual activity ([4]; compound 1.0 µM): 94% | residual activity ([4]; compound 10.0 µM): 70% | residual activity ([5]; compound 1.0 µM): 95% | residual activity ([5]; compound 10.0 µM): 111% | residual activity ([6]; compound 1.0 µM): 71% | residual activity ([6]; compound 10.0 µM): 30% | residual activity ([7]; compound 1.0 µM): 99% | residual activity ([7]; compound 10.0 µM): 64% | residual activity ([8]; compound 1.0 µM): 95% | residual activity ([8]; compound 10.0 µM): 43% | residual activity ([9]; compound 1.0 µM): 90% | residual activity ([9]; compound 10.0 µM): 90% | residual activity ([10]; compound 1.0 µM): 93% | residual activity ([10]; compound 10.0 µM): 98% | residual activity ([11]; compound 1.0 µM): 86% | residual activity ([11]; compound 10.0 µM): 21% | residual activity ([12]; compound 1.0 µM): 92% | residual activity ([12]; compound 10.0 µM): 94% | residual activity ([13]; compound 1.0 µM): 84% | residual activity ([13]; compound 10.0 µM): 70% | residual activity ([14]; compound 1.0 µM): 91% | residual activity ([14]; compound 10.0 µM): 109% | residual activity ([15]; compound 1.0 µM): 103% | residual activity ([15]; compound 10.0 µM): 97% | residual activity ([16]; compound 1.0 µM): 87% | residual activity ([16]; compound 10.0 µM): 63% | residual activity ([17]; compound 1.0 µM): 107% | residual activity ([17]; compound 10.0 µM): 103% | residual activity ([18]; compound 1.0 µM): 84% | residual activity ([18]; compound 10.0 µM): 79% | residual activity ([19]; compound 1.0 µM): 94% | residual activity ([19]; compound 10.0 µM): 87% | residual activity [20]: 83% | residual activity ([21]; compound 1.0 µM): 87% | residual activity ([21]; compound 10.0 µM): 88% | residual activity ([22]; compound 1.0 µM): 93% | residual activity ([22]; compound 10.0 µM): 64% | residual activity ([23]; compound 1.0 µM): 92% | residual activity ([23]; compound 10.0 µM): 95% | residual activity ([24]; compound 1.0 µM): 74% | residual activity ([24]; compound 10.0 µM): 36% | residual activity [25]: 108% | residual activity ([26]; compound 1.0 µM): 111% | residual activity ([26]; compound 10.0 µM): 79% | residual activity ([27]; compound 1.0 µM): 100% | residual activity ([27]; compound 10.0 µM): 80% | residual activity ([28]; compound 1.0 µM): 91% | residual activity ([28]; compound 10.0 µM): 53% | residual activity ([29]; compound 1.0 µM): 89% | residual activity ([29]; compound 10.0 µM): 76% | residual activity ([30]; compound 1.0 µM): 106% | residual activity ([30]; compound 10.0 µM): 81% | residual activity ([31]; compound 1.0 µM): 76% | residual activity ([31]; compound 10.0 µM): 64% | residual activity ([32]; compound 1.0 µM): 82% | residual activity ([32]; compound 10.0 µM): 74% | residual activity ([33]; compound 1.0 µM): 72% | residual activity ([33]; compound 10.0 µM): 82% | residual activity [34]: 101%
